These results are taken from patent US8263606B2 (Xenon Pharmaceuticals Inc., priority 2008, dated 2012).

What is called IC50 is the concentration that inhibits the measured activity by half. The melting point is the temperature, or range, at which the solid turns liquid. As usually defined, the inhibition is the relative decrease from the control value, in per cent.

One data set relates to sodium channel. The data set is described as follows: Guanidine influx assay (14C-guanidine radiotracer flux, in vitro). The format is cell-based, human or rat. The settings on record: guanidine influx assay using a known cell line that expresses a sodium channel; activity level class. An outline of the steps:
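Radiotracer read-out: intracellular 14C-guanidine counted after washing with guanidine-supplemented low-sodium buffer. Cells expressing human or rat channels get test agent plus aconitine activator and tracer, incubated at ambient temperature. Dilution series centred on 1 μM; IC50 by sigmoidal dose-response fit.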

For the next data set, the target named is CYP3A4 (Homo sapiens, UniProt P08684). The data set is described as follows: Cytochrome P450 (CYP450) Inhibition Assay, CYP3A4 (Vivid fluorescence, BOMCC substrate). The settings on record: human, P450 Baculosomes (recombinant CYP3A4), probe BOMCC (Vivid substrate).
Sequence of CYP3A4 (P08684 whole entry): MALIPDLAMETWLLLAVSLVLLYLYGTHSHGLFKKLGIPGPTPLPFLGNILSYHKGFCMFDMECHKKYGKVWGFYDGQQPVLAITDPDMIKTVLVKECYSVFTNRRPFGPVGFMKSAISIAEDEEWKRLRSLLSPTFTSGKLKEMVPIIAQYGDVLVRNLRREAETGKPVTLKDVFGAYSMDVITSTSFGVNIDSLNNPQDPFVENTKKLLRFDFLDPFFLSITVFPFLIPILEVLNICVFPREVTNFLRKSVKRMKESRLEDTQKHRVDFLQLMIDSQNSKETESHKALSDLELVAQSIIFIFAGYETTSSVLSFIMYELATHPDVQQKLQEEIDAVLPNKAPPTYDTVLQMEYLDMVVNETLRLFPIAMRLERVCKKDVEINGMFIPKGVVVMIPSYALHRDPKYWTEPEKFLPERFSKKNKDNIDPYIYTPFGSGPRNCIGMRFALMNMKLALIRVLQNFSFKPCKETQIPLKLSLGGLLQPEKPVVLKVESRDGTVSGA

In turn, `N#CCN1C(=O)C2(COc3cc4c(cc32)OCO4)c2ccccc21` (stereo not drawn) [Example 4.73, (2′-oxospiro[furo[2,3-f][1,3]benzodioxole-7,3′-indol]-1′(2′H)-yl)acetonitrile] gave a melting point of 170 to 172 °C. Besides, the IC50 with sodium channel lay within 1 to 100 nM. The inhibition at 10 µM on CYP3A4 was greater than 50%.

Consider `O=C1N(Cc2ccc(C(F)(F)F)o2)c2c(C(F)(F)F)cccc2C12COc1cc3c(cc12)OCO3` (stereo not drawn) [Example 4.74, 7′-(trifluoromethyl)-1′-{[5-(trifluoromethyl)-2-furyl]methyl}spiro[furo[2,3-f][1,3]benzodioxole-7,3′-indol]-2′(1′H)-one], for which the melting point was in the range of 95 to 98 °C. Also, in the data set on sodium channel, the IC50 fell in the range of 100 to 1000 nM. Moreover, at CYP3A4, the inhibition at 10 µM is greater than 50%.

`O=C1N(Cc2ccc(Cl)s2)c2c(C(F)(F)F)cccc2C12COc1cc3c(cc12)OCO3` (stereo not drawn) [Example 4.75, 1-[(5-chloro-2-thienyl)methyl]-7′-(trifluoromethyl)spiro[furo[2,3-f][1,3]benzodioxole-7,3′-indol]-2′(1′H)-one]: the melting point was 165 to 166 °C. Moreover, the IC50 in the data set on sodium channel is 100 to 1000 nM. Moreover, on CYP3A4, the inhibition at 10 µM is greater than 50%.

In turn, `CC(C)c1ncc(CN2C(=O)C3(COc4cc5c(cc43)OCO5)c3cccc(C(F)(F)F)c32)s1` (stereo not drawn) [Example 4.76, 1′-[(2-isopropyl-1,3-thiazol-5-yl)methyl]-7′-(trifluoromethyl)spiro[furo[2,3-f][1,3]benzodioxole-7,3′-indol]-2′(1′H)-one] registered a melting point of 101 to 103 °C. Besides, the half-inhibitory concentration (IC50) in the data set on sodium channel was in the range of 100 to 1000 nM. Further, the inhibition at 10 µM at CYP3A4 is greater than 50%.

In the case of `CC(C)c1ncc(CN2C(=O)C3(COc4cc5c(cc43)OCO5)c3ccccc32)o1` (stereo not drawn) [Example 4.77, 1′-[(2-isopropyl-1,3-oxazol-5-yl)methyl]spiro[furo[2,3-f][1,3]benzodioxole-7,3′-indol]-2′(1′H)-one], the melting point fell in the range of 75 to 77 °C. For the same molecule, the half-maximal inhibitory concentration (IC50) in the data set with sodium channel lay in the range of 1 to 100 nM. Also, the inhibition at 10 µM at CYP3A4 is greater than 50%.

As to `CSc1ccc(CN2C(=O)C3(COc4cc5c(cc43)OCO5)c3ccccc32)cc1` (stereo not drawn) [Example 4.79, 1′-[4-(methylsulfanyl)benzyl]spiro[furo[2,3-f][1,3]benzodioxole-7,3′-indol]-2′(1′H)-one], the melting point lay within 128 to 130 °C. In addition, the IC50 in the data set on sodium channel was in the range of 1 to 100 nM. Also, the inhibition at 10 µM on CYP3A4 is greater than 50%.

Consider `N#CCCN1C(=O)C2(COc3cc4c(cc32)OCO4)c2ccccc21` (stereo not drawn) [Example 4.80, 3-(2′-oxospiro[furo[2,3-f][1,3]benzodioxole-7,3′-indol]-1′(2′H)-yl)propanenitrile], for which the melting point lay in the range of 200 to 202 °C. Besides, the IC50 in the data set on sodium channel fell in the range of 1 to 100 nM. Also, the inhibition at 10 µM on CYP3A4 is greater than 50%.

Turning to `O=C1N(Cc2cnc(Br)s2)c2ccccc2C12COc1cc3c(cc12)OCO3` (stereo not drawn) [Example 4.81, 1′-[(2-bromo-1,3-thiazol-5-yl)methyl]spiro[furo[2,3-f][1,3]benzodioxole-7,3′-indol]-2′(1′H)-one], the melting point lay in the range of 215 to 217 °C. The IC50 with sodium channel was in the range of 1 to 100 nM. In addition, the inhibition at 10 µM at CYP3A4 was greater than 50%.

The molecule `Nc1nc(C(F)(F)F)c(CN2C(=O)C3(COc4cc5c(cc43)OCO5)c3ccccc32)s1` (stereo not drawn) [Example 4.82, 1′-{[2-amino-4-(trifluoromethyl)-1,3-thiazol-5-yl]methyl}spiro[furo[2,3-f][1,3]benzodioxole-7,3′-indol]-2′(1′H)-one] registered a melting point of 165 to 167 °C. In the data set with sodium channel, the IC50 is 100 to 1000 nM. The inhibition at 10 µM at CYP3A4 is greater than 50%.

The molecule `COc1cc2c(cc1F)OCC21C(=O)N(Cc2ccc(C(F)(F)F)o2)c2ccccc21` (stereo not drawn) [Example 4.83, 6-fluoro-5-methoxy-1′-{[5-(trifluoromethyl)furan-2-yl]methyl}spiro[1-benzofuran-3,3′-indol]-2′(1′H)-one] returned a melting point of 132 to 134 °C. In addition, the IC50 with sodium channel lay in the range of 1000 to 10000 nM. Besides, at CYP3A4, the inhibition at 10 µM was greater than 50%.

`N#CCN1C(=O)C2(COc3cc4c(cc32)OCO4)c2c(Cl)cccc21` (stereo not drawn) [Example 4.84] came in with a melting point of 122 to 123 °C. The IC50 in the data set on sodium channel was in the range of 100 to 1000 nM. Moreover, the inhibition at 10 µM on CYP3A4 is less than 50%.

Regarding `Nc1nc(CN2C(=O)C3(COc4cc5c(cc43)OCO5)c3ccccc32)cs1` (stereo not drawn) [Example 4.85, 1′-[(2-amino-1,3-thiazol-4-yl)methyl]spiro[furo[2,3-f][1,3]benzodioxole-7,3′-indol]-2′(1′H)-one], the melting point is 230 to 235 °C. Besides, in the data set with sodium channel, the IC50 lay in the range of 100 to 1000 nM. Also, on CYP3A4, the inhibition at 10 µM was greater than 50%.

The molecule `O=C1N(Cc2ccc(Cl)s2)c2cccc(Br)c2C12COc1cc3c(cc12)OCO3` (stereo not drawn) [Example 4.86, 4′-bromo-1′-[1(5-chloro-2-thienyl)methyl]spiro[furo[2,3-f][1,3]benzodioxole-7,3′-indol]-2′(1′H)-one] gave a melting point of 85 to 87 °C. Moreover, the IC50 in the data set with sodium channel is 1 to 100 nM. On CYP3A4, the inhibition at 10 µM was greater than 50%.

`N#Cc1cccc2c1N(Cc1ccc(Cl)s1)C(=O)C21COc2cc3c(cc21)OCO3` (stereo not drawn) [Example 4.87, 1′-[(5-chloro-2-thienyl)methyl]-2′-oxo-1′,2′-dihydrospiro[furo[2,3-f][1,3]benzodioxole-7,3′-indole]-7′-carbonitrile] returned a melting point of 192 to 193 °C. Moreover, the half-maximal inhibitory concentration (IC50) with sodium channel lay within 1 to 100 nM. The inhibition at 10 µM on CYP3A4 was greater than 50%.

Molecule `CC(C)c1nc(CN2C(=O)C3(COc4cc5c(cc43)OCO5)c3cccc(C#N)c32)cs1` (stereo not drawn) [Example 4.88, 1′-[(2-isopropyl-1,3-thiazol-4-yl)methyl]-2′-oxo-1′,2′-dihydrospiro[furo[2,3-f][1,3]benzodioxole-7,3′-indole]-7′-carbonitrile] yielded a melting point of 162 to 163 °C. For the same molecule, in the data set with sodium channel, the 50% inhibitory concentration (IC50) was in the range of 1 to 100 nM. The inhibition at 10 µM on CYP3A4 was greater than 50%.

Molecule `O=C1N(Cc2ccc(Cl)s2)c2cccc(Cl)c2C12COc1cc3c(cc12)OCO3` (stereo not drawn) [Example 4.89, 4′-chloro-1′-[(5-chloro-2-thienyl)methyl]spiro[furo[2,3-f][1,3]benzodioxole-7,3′-indol]-2′(1′H)-one] registered a melting point of 167 to 168 °C. Further, the IC50 in the data set with sodium channel lay within 1 to 100 nM. The inhibition at 10 µM on CYP3A4 was greater than 50%.

`CC(C)c1nc(CN2C(=O)C3(COc4cc5c(cc43)OCO5)c3c(Cl)cccc32)cs1` (stereo not drawn) [Example 4.91, 4′-chloro-1′-[(2-isopropyl-1,3-thiazol-4-yl)methyl]spiro[furo[2,3-f][1,3]benzodioxole-7,3′-indol]-2′(1′H)-one] showed a melting point of 147 to 148 °C. In addition, in the data set with sodium channel, the IC50 lay within 1 to 100 nM. Besides, the inhibition at 10 µM at CYP3A4 is greater than 50%.

`CC(C)c1nc(CN2C(=O)C3(COc4cc5c(cc43)OCO5)c3c(-c4ccc(N(C)C)nc4)cccc32)cs1` (stereo not drawn) [Example 4.92, 4′-[6-(dimethylamino)pyridin-3-yl]-1′-{[2-(1-methylethyl)-1,3-thiazol-4-yl]methyl}spiro[furo[2,3-f][1,3]benzodioxole-7,3′-indol]-2′(1′H)-one] returned a melting point of 164 to 165 °C. The IC50 with sodium channel was in the range of 100 to 1000 nM. Also, the inhibition at 10 µM at CYP3A4 is greater than 50%.

Turning to `O=C1N(Cc2ccccc2CF)c2ccccc2C12COc1cc3c(cc12)OCCO3` (stereo not drawn) [Example 4.93], the melting point lay in the range of 188 to 190 °C. Besides, the 50% inhibitory concentration (IC50) with sodium channel lay in the range of 1 to 100 nM. Also, the inhibition at 10 µM at CYP3A4 was greater than 50%.

`N#Cc1cccc(CN2C(=O)C3(COc4cc5c(cc43)OCCO5)c3ccccc32)c1` (stereo not drawn) [Example 4.94, 3-[(2′-oxo-2,3-dihydrospiro[furo[2,3-g][1,4]benzodioxine-8,3′-indol]-1′(2′H)-yl)methyl]benzonitrile] showed a melting point of 173 to 178 °C. The IC50 in the data set with sodium channel lay in the range of 1 to 100 nM. For the same molecule, on CYP3A4, the inhibition at 10 µM was greater than 50%.

As for `COc1cc(CN2C(=O)C3(COc4cc5c(cc43)OCCO5)c3ccccc32)ccc1F` (stereo not drawn) [Example 4.95, 1-(4-fluoro-3-methoxybenzyl)-2,3-dihydrospiro[furo[2,3-g][1,4]benzodioxine-8,3′-indol]-2′(1′H)-one], the melting point is 161 to 163 °C. For the same molecule, the 50% inhibitory concentration (IC50) with sodium channel lay within 1 to 100 nM. On CYP3A4, the inhibition at 10 µM was greater than 50%.

`N#Cc1ccc(CN2C(=O)C3(COc4cc5c(cc43)OCCO5)c3ccccc32)cc1` (stereo not drawn) [Example 4.96, 4-[(2′-oxo-2,3-dihydrospiro[furo[2,3-g][1,4]benzodioxine-8,3′-indol]-1′(2′H)-yl)methyl]benzonitrile] yielded a melting point of 69 to 72 °C. In the data set with sodium channel, the half-maximal inhibitory concentration (IC50) was in the range of 1 to 100 nM. Also, the inhibition at 10 µM on CYP3A4 is greater than 50%.

For `O=C1N(Cc2ccc(-c3ccno3)cc2)c2ccccc2C12COc1cc3c(cc12)OCCO3` (stereo not drawn) [Example 4.97, 1′-(4-isoxazol-5-ylbenzyl)-2,3-dihydrospiro[furo[2,3-g][1,4]benzodioxine-8,3′-indol]-2′(1′H)-one], the melting point is 209 to 212 °C. Also, the 50% inhibitory concentration (IC50) in the data set on sodium channel is 1 to 100 nM. The inhibition at 10 µM on CYP3A4 was less than 50%.

For the molecule `Cc1noc2cc3c(cc12)C1(CO3)C(=O)N(Cc2ccc(-c3ccno3)cc2)c2ccccc21` (stereo not drawn) [Example 4.99, 1′-(4-isoxazol-5-ylbenzyl)-3-methylspiro[furo[3,2-f][1,2]benzisoxazole-5,3′-indol]-2′(1′H)-one], the melting point is 192 to 194 °C. The 50% inhibitory concentration (IC50) in the data set with sodium channel is 100 to 1000 nM. Also, the inhibition at 10 µM at CYP3A4 was less than 50%.

For `O=C1N(Cc2ccc(F)cn2)c2ccccc2C12COc1cc3c(cc12)OCCO3` (stereo not drawn) [Example 4.100, 1-[(5-fluoropyridin-2-yl)methyl]-2,3-dihydrospiro[furo[2,3-g][1,4]benzodioxine-8,3′-indol]-2′(1′H)-one], the melting point is 174 to 176 °C. For the same molecule, in the data set with sodium channel, the concentration for half-maximal inhibition (IC50) fell in the range of 1 to 100 nM. Further, the inhibition at 10 µM at CYP3A4 was less than 50%.
